The values that follow are results of earlier work, collected in patent US6780436B1, “Solid oral pharmaceutical formulation of modified release that contains an acid labile benzimidazole compound” (Laboratorios Del Dr. Esteve, SA, priority 1999, dated 2004).

For this data set the following is noted: hard gelatin capsules that contain omeprazole pellets with enteric coating; stated 'in general' in the background.

Turning to `COc1ccc2[nH]c([S+]([O-])Cc3ncc(C)c(OC)c3C)nc2c1` (stereo not shown) [omeprazole, 5-methoxy-2[[(4-methoxy-3,5-dimethyl-2-pyridinyl)methyl]sulphinyl]-1H-benzimidazole], the “time of peak plasma concentration after administration” value was 2 h.
